Key:
Assay in all cases: relative viability (nuclei count vs DMSO), 5 days (fraction); higher = more cells survive
HCC-827 = test system: HCC-827
Summary of the method: (§1)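 Relative viability divides the nuclei count in treated wells by that in vehicle wells. Lung cancer cell lines were seeded in 1536-well plates, dosed by pin tool the next day, and fixed and stained after 5 days in one step with final 0.05% Triton X-100, 1% formaldehyde and 1 ug/ml Hoechst. Dosing was a single drug or a fixed anchor-drug dose plus five library-drug doses (not always all listed) in √10 steps, and values are medians of duplicate plates imaged at 4×.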

NCI-H23 = test system: NCI-H23
Summary of the method: as §1

NCI-H2126 = test system: NCI-H2126
Summary of the method: as §1

NCI-H650 = test system: NCI-H650
Summary of the method: as §1

NCI-H2405 = test system: NCI-H2405
Summary of the method: as §1

NCI-H596 = test system: NCI-H596
Summary of the method: as §1

PC-3 [JPC-3] = test system: PC-3 [JPC-3]
Summary of the method: as §1

NCI-H727 = test system: NCI-H727
Summary of the method: as §1

LOU-NH91 = test system: LOU-NH91
Summary of the method: as §1

NCI-H2228 = test system: NCI-H2228
Summary of the method: as §1

EKVX = test system: EKVX
Summary of the method: as §1

Cc1cn(-c2cc(NC(=O)c3ccc(C)c(Nc4nccc(-c5cccnc5)n4)c3)cc(C(F)(F)F)c2)cn1 [Nilotinib] + C[C@@H](Oc1cc(-c2cnn(C3CCNCC3)c2)cnc1N)c1c(Cl)ccc(F)c1Cl [Crizotinib] (partner 1 µM)
relative viability (HCC-827; first compound 0.001 µM): 0.936 | relative viability (HCC-827; first compound 0.003162 µM): 0.954 | relative viability (HCC-827; first compound 0.01 µM): 0.893 | relative viability (HCC-827; first compound 0.1 µM): 0.91 | relative viability (NCI-H23; first compound 0.001 µM): 0.471 | relative viability (NCI-H23; first compound 0.003162 µM): 0.442 | relative viability (NCI-H23; first compound 0.01 µM): 0.6 | relative viability (NCI-H23; first compound 0.03162 µM): 0.328 | relative viability (NCI-H23; first compound 0.1 µM): 0.378 | relative viability (NCI-H2126; first compound 0.001 µM): 1.02 | relative viability (NCI-H2126; first compound 0.003162 µM): 1.23 | relative viability (NCI-H2126; first compound 0.01 µM): 1.39 | relative viability (NCI-H2126; first compound 0.03162 µM): 0.966 | relative viability (NCI-H2126; first compound 0.1 µM): 0.943 | relative viability (NCI-H650; first compound 0.001 µM): 0.637 | relative viability (NCI-H650; first compound 0.003162 µM): 0.551 | relative viability (NCI-H650; first compound 0.01 µM): 0.844 | relative viability (NCI-H650; first compound 0.03162 µM): 0.601 | relative viability (NCI-H650; first compound 0.1 µM): 0.715 | relative viability (NCI-H2405; first compound 0.001 µM): 0.854 | relative viability (NCI-H2405; first compound 0.003162 µM): 0.746 | relative viability (NCI-H2405; first compound 0.01 µM): 0.84 | relative viability (NCI-H2405; first compound 0.03162 µM): 0.747 | relative viability (NCI-H2405; first compound 0.1 µM): 0.857 | relative viability (NCI-H596; first compound 0.001 µM): 0.937 | relative viability (NCI-H596; first compound 0.01 µM): 1.07 | relative viability (NCI-H596; first compound 0.03162 µM): 0.958 | relative viability (NCI-H596; first compound 0.1 µM): 1.1 | relative viability (PC-3 [JPC-3]; first compound 0.001 µM): 0.987 | relative viability (PC-3 [JPC-3]; first compound 0.003162 µM): 1.23 | relative viability (PC-3 [JPC-3]; first compound 0.01 µM): 1.06 | relative viability (PC-3 [JPC-3]; first compound 0.03162 µM): 0.882 | relative viability (PC-3 [JPC-3]; first compound 0.1 µM): 0.88 | relative viability (NCI-H727; first compound 0.001 µM): 0.865 | relative viability (NCI-H727; first compound 0.01 µM): 1.05 | relative viability (NCI-H727; first compound 0.03162 µM): 0.575 | relative viability (NCI-H727; first compound 0.1 µM): 0.483 | relative viability (LOU-NH91; first compound 0.001 µM): 0.763 | relative viability (LOU-NH91; first compound 0.003162 µM): 0.722 | relative viability (LOU-NH91; first compound 0.01 µM): 0.76 | relative viability (LOU-NH91; first compound 0.03162 µM): 0.722 | relative viability (LOU-NH91; first compound 0.1 µM): 0.768 | relative viability (NCI-H2228; first compound 0.001 µM): 0.53 | relative viability (NCI-H2228; first compound 0.003162 µM): 0.418 | relative viability (NCI-H2228; first compound 0.01 µM): 0.606 | relative viability (NCI-H2228; first compound 0.03162 µM): 0.461 | relative viability (NCI-H2228; first compound 0.1 µM): 0.294 | relative viability (EKVX; first compound 0.001 µM): 0.812 | relative viability (EKVX; first compound 0.003162 µM): 1.39 | relative viability (EKVX; first compound 0.01 µM): 1.42 | relative viability (EKVX; first compound 0.03162 µM): 0.809 | relative viability (EKVX; first compound 0.1 µM): 1.13

Reference: the supplement of paper PMC10307832
